These are literature values, as cited in patent US5529986A, “Conjugate, its preparation and use and a substrate prepared with the conjugate” (priority 1991, dated 1996).

The conditions of this data set: heparin used for standard graphs.

In the case of heparin, the “Known specific biological activity” value is recorded as 180 I.U./mg.
